From patent US12227500B2, “Substituted pyrrolo[2,3-b]pyridines for suppressing toxic endoplasmic reticulum stress” (THE TRUSTEES OF COLUMBIA UNIVERSITY IN THE CITY OF NEW YORK, priority 2018, dated 2025)
Read-outs that look alike come from different tables or passages of the source.

How the values were obtained:
Assay in all cases: Radiolabeled ATP kinase assay, panel of 371 kinases (Table S6)
Assay type in all cases: biochemical
[1] = target: T1, panel of 371 human kinases (Homo sapiens, UniProt P53667); settings: LIMK1; 0.1 μM; 10 μM ATP; read-out: % Enzyme Activity (relative to DMSO controls)
T1 construct: purchased Reaction Biology Corp
Description: (§1) ; FIG. 38C). […]. Further targeted analyses, such as genetic knock-down or knock-out, may be warranted to parse the role of these additional kinases in our model of neurodegeneration.

[2] = target: T2, panel of 371 human kinases (Homo sapiens, UniProt P57078); settings: RIPK4; 0.1 μM; 10 μM ATP; read-out: % Enzyme Activity (relative to DMSO controls)
T2 construct: purchased Reaction Biology Corp
Description: as §1

[3] = target: T3, panel of 371 human kinases (Homo sapiens, UniProt O43318); settings: TAK1; 0.1 μM; 10 μM ATP; read-out: % Enzyme Activity (relative to DMSO controls)
T3 construct: purchased Reaction Biology Corp
Description: as §1

[4] = target: T4, panel of 371 human kinases (Homo sapiens, UniProt P07949); settings: RET; 0.1 μM; 10 μM ATP; read-out: % Enzyme Activity (relative to DMSO controls)
T4 construct: purchased Reaction Biology Corp
Description: as §1

[5] = target: T5, panel of 371 human kinases (Homo sapiens, UniProt Q6P3R8); settings: NEK5; 0.1 μM; 10 μM ATP; read-out: % Enzyme Activity (relative to DMSO controls)
T5 construct: purchased Reaction Biology Corp
Description: as §1

[6] = target: T6, panel of 371 human kinases (Homo sapiens, UniProt P06493); settings: 0.1 μM, 10 μM ATP, read-out: % Enzyme Activity (relative to DMSO controls)
T6 construct: purchased Reaction Biology Corp
Description: as §1

[7] = target: T7, panel of 371 human kinases (Homo sapiens, UniProt Q14289); settings: PYK2; 0.1 μM; 10 μM ATP; read-out: % Enzyme Activity (relative to DMSO controls)
T7 construct: purchased Reaction Biology Corp
Description: as §1

[8] = target: T8, panel of 371 human kinases (Homo sapiens, UniProt P35968); settings: KDR/VEGFR2; 0.1 μM; 10 μM ATP; read-out: % Enzyme Activity (relative to DMSO controls)
T8 construct: purchased Reaction Biology Corp
Description: as §1

[9] = target: T9, panel of 371 human kinases (Homo sapiens, UniProt Q9H4A3); settings: WNK1; 0.1 μM; 10 μM ATP; read-out: % Enzyme Activity (relative to DMSO controls)
T9 construct: purchased Reaction Biology Corp
Description: as §1

[10] = target: T10, panel of 371 human kinases (Homo sapiens, UniProt Q6DT37); settings: DMPK2; 0.1 μM; 10 μM ATP; read-out: % Enzyme Activity (relative to DMSO controls)
T10 construct: purchased Reaction Biology Corp
Description: as §1

[11] = target: T11, panel of 371 human kinases (Homo sapiens, UniProt Q9Y3S1); settings: WNK2; 0.1 μM; 10 μM ATP; read-out: % Enzyme Activity (relative to DMSO controls)
T11 construct: purchased Reaction Biology Corp
Description: as §1

[12] = target: T12, panel of 371 human kinases (Homo sapiens, UniProt P31751); settings: AKT2; 0.1 μM; 10 μM ATP; read-out: % Enzyme Activity (relative to DMSO controls)
T12 construct: purchased Reaction Biology Corp
Description: as §1

[13] = target: T13, panel of 371 human kinases (Homo sapiens, UniProt P34947); settings: GRK5; 0.1 μM; 10 μM ATP; read-out: % Enzyme Activity (relative to DMSO controls)
T13 construct: purchased Reaction Biology Corp
Description: as §1

[14] = target: T14, panel of 371 human kinases (Homo sapiens, UniProt P00519); settings: ABL1; 0.1 μM; 10 μM ATP; read-out: % Enzyme Activity (relative to DMSO controls)
T14 construct: purchased Reaction Biology Corp
Description: as §1

[15] = target: T15, panel of 371 human kinases (Homo sapiens, UniProt Q02763); settings: TIE2/TEK; 0.1 μM; 10 μM ATP; read-out: % Enzyme Activity (relative to DMSO controls)
T15 construct: purchased Reaction Biology Corp
Description: as §1

[16] = target: T16, panel of 371 human kinases (Homo sapiens, UniProt O00311); settings: CDC7/DBF4; 0.1 μM; 10 μM ATP; read-out: % Enzyme Activity (relative to DMSO controls)
T16 construct: purchased Reaction Biology Corp
Description: as §1

[17] = target: T17, panel of 371 human kinases (Homo sapiens, UniProt Q6PHR2); settings: ULK3; 0.1 μM; 10 μM ATP; read-out: % Enzyme Activity (relative to DMSO controls)
T17 construct: purchased Reaction Biology Corp
Description: as §1

[18] = target: T18, panel of 371 human kinases (Homo sapiens, UniProt P09769); settings: FGR; 0.1 μM; 10 μM ATP; read-out: % Enzyme Activity (relative to DMSO controls)
T18 construct: purchased Reaction Biology Corp
Description: as §1

[19] = target: T19, panel of 371 human kinases (Homo sapiens, UniProt P08069); settings: IGF1R; 0.1 μM; 10 μM ATP; read-out: % Enzyme Activity (relative to DMSO controls)
T19 construct: purchased Reaction Biology Corp
Description: as §1

[20] = target: T20, panel of 371 human kinases (Homo sapiens, UniProt Q02156); settings: PKCepsilon; 0.1 μM; 10 μM ATP; read-out: % Enzyme Activity (relative to DMSO controls)
T20 construct: purchased Reaction Biology Corp
Description: as §1

[21] = target: T21, panel of 371 human kinases (Homo sapiens, UniProt Q9BYT3); settings: STK33; 0.1 μM; 10 μM ATP; read-out: % Enzyme Activity (relative to DMSO controls)
T21 construct: purchased Reaction Biology Corp
Description: as §1

[22] = target: T22, panel of 371 human kinases (Homo sapiens, UniProt Q9H2X6); settings: HIPK2; 0.1 μM; 10 μM ATP; read-out: % Enzyme Activity (relative to DMSO controls)
T22 construct: purchased Reaction Biology Corp
Description: as §1

[23] = target: T23, panel of 371 human kinases (Homo sapiens, UniProt O75914); settings: PAK3; 0.1 μM; 10 μM ATP; read-out: % Enzyme Activity (relative to DMSO controls)
T23 construct: purchased Reaction Biology Corp
Description: as §1

[24] = target: T24, panel of 371 human kinases (Homo sapiens, UniProt Q07002); settings: CDK18/cyclin Y (PCTK3); 0.1 μM; 10 μM ATP; read-out: % Enzyme Activity (relative to DMSO controls)
T24 construct: purchased Reaction Biology Corp
Description: as §1

T6 sequence (P06493 whole entry): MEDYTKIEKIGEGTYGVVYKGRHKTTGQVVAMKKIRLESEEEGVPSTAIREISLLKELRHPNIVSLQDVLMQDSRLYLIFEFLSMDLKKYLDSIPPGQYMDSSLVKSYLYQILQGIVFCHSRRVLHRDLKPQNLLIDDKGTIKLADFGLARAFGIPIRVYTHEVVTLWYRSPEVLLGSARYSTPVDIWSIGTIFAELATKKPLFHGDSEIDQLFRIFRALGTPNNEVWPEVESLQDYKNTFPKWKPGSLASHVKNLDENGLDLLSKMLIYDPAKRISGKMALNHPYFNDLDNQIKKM
T20 sequence (Q02156 whole entry): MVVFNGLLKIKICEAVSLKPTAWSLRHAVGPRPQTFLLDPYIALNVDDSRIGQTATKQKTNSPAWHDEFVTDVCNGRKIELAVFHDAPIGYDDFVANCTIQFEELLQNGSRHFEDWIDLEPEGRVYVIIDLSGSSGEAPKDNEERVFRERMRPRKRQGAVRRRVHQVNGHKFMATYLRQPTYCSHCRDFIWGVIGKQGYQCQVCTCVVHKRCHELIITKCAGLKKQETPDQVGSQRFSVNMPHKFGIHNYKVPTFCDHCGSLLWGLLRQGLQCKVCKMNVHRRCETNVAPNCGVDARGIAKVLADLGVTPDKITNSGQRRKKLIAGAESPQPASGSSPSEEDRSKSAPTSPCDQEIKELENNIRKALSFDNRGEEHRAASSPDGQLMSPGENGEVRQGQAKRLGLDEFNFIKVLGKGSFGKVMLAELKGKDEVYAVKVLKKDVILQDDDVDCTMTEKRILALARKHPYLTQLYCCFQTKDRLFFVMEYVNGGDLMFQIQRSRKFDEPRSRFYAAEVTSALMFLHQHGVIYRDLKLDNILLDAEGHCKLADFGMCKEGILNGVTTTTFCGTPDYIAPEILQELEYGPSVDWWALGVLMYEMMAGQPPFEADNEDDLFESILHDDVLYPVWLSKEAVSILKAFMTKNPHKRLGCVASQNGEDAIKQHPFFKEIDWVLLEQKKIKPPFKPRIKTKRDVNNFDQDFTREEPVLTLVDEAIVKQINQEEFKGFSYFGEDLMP
T15 sequence (Q02763 23-1124): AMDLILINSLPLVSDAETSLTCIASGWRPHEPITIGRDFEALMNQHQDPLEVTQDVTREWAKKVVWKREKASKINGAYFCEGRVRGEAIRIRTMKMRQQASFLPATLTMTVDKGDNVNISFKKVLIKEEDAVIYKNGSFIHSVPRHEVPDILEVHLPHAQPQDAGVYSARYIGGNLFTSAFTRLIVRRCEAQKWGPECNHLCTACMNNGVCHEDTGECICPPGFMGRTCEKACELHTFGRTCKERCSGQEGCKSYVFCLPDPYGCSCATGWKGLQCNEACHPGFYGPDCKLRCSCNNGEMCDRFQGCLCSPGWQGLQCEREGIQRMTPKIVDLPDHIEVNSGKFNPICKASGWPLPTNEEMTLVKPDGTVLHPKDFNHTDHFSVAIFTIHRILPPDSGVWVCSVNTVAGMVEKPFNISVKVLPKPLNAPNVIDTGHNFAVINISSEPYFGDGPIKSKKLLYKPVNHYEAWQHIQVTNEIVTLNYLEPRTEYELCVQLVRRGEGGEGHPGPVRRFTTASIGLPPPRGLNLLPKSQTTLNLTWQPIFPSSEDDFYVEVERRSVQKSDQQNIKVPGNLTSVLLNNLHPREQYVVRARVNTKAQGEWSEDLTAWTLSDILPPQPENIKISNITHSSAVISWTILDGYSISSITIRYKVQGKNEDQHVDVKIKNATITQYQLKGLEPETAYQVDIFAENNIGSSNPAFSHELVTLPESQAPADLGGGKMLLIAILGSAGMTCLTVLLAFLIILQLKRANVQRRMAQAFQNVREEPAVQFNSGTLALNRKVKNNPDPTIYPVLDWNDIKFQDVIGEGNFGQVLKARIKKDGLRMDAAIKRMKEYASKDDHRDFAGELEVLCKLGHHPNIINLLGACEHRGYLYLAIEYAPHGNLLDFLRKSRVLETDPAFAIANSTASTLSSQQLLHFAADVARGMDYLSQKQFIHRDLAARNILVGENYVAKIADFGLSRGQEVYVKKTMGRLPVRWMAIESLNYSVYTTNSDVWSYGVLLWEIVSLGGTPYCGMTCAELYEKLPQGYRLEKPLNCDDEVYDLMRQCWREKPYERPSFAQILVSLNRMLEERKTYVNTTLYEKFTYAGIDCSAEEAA
T16 sequence (O00311 whole entry): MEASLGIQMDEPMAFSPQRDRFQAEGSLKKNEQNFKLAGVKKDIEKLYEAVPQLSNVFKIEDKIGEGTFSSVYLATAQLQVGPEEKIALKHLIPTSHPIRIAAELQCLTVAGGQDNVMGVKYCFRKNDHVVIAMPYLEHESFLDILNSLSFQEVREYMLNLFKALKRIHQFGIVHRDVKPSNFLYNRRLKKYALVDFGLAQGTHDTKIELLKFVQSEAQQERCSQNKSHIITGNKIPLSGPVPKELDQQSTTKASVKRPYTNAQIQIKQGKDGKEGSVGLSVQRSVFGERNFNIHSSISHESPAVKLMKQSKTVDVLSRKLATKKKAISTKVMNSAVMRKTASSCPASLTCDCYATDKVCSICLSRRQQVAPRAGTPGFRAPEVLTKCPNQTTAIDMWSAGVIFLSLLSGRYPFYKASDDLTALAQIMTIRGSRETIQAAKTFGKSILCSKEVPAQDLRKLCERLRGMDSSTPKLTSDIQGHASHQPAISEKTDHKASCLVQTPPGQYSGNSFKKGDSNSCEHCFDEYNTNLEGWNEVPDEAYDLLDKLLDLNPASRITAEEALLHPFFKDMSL
T9 sequence (Q9H4A3 whole entry): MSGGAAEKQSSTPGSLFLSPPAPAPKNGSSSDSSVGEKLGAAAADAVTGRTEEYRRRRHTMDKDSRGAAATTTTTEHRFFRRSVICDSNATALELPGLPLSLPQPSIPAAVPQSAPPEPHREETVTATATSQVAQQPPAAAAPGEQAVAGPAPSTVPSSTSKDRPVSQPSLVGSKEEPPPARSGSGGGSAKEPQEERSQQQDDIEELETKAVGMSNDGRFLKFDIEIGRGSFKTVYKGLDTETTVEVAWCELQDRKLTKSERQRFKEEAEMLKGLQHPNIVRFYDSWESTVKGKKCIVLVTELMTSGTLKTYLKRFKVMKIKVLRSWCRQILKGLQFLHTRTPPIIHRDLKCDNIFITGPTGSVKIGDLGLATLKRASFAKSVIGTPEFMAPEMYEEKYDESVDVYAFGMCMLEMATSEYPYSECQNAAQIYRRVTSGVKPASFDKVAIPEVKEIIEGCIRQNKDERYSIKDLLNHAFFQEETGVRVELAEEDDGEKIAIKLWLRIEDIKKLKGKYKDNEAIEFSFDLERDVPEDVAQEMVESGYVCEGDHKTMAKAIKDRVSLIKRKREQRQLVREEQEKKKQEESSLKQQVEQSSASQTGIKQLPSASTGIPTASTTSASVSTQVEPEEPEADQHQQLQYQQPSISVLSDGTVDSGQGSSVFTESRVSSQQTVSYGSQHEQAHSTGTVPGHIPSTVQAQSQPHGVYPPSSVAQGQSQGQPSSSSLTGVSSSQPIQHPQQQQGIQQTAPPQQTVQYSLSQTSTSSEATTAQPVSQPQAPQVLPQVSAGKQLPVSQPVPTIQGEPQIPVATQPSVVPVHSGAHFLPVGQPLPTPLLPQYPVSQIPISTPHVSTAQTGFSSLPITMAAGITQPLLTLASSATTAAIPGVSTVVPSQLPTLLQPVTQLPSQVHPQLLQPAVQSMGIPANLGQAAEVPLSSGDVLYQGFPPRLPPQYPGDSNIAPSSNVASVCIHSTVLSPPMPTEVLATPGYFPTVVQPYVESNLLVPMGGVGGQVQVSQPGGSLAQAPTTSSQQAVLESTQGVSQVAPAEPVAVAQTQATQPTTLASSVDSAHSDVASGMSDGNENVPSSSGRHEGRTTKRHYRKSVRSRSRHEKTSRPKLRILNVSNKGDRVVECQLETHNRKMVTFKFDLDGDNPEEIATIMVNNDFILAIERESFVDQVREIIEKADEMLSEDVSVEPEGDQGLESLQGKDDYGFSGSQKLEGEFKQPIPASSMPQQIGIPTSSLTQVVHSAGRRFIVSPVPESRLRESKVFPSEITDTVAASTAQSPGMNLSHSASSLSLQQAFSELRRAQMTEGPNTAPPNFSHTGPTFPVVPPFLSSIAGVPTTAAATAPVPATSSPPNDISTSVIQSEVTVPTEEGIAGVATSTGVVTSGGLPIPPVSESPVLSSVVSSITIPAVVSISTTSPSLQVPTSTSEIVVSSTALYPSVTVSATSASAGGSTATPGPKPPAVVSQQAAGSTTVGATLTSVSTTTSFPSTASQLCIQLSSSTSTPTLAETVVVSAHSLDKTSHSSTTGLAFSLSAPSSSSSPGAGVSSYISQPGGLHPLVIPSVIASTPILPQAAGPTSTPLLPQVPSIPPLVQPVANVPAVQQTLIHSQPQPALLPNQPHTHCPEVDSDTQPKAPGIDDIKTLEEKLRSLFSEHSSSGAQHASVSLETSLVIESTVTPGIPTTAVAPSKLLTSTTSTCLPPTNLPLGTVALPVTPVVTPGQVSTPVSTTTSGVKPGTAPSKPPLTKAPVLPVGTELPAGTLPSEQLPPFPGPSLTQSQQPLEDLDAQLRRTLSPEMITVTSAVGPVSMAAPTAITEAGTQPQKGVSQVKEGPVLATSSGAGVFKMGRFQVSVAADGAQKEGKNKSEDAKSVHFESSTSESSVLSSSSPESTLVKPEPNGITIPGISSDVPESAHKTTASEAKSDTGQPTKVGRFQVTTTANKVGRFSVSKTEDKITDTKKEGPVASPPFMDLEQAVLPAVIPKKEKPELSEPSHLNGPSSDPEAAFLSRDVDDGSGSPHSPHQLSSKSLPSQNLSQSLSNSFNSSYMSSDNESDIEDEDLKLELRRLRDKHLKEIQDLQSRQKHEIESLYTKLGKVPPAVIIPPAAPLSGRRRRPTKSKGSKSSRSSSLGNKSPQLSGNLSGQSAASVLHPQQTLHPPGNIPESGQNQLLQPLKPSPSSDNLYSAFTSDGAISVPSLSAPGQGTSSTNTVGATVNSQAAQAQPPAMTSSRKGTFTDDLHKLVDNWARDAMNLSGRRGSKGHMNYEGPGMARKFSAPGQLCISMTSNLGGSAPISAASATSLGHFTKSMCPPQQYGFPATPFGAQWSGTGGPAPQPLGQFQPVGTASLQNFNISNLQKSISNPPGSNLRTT

Structure (SMILES) | remaining activity at 0.1 µM [1] | remaining activity at 0.1 µM [2] | remaining activity at 0.1 µM [3] | remaining activity at 0.1 µM [4] | remaining activity at 0.1 µM [5] | remaining activity at 0.1 µM ([6]; CDK1/cyclin A) | remaining activity at 0.1 µM ([6]; CDK1/cyclin B) | remaining activity at 0.1 µM ([6]; CDK1/cyclin E) | remaining activity at 0.1 µM [7] | remaining activity at 0.1 µM [8] | remaining activity at 0.1 µM [9] | remaining activity at 0.1 µM [10] | remaining activity at 0.1 µM [11] | remaining activity at 0.1 µM [12] | remaining activity at 0.1 µM [13] | remaining activity at 0.1 µM [14] | remaining activity at 0.1 µM [15] | remaining activity at 0.1 µM [16] | remaining activity at 0.1 µM [17] | remaining activity at 0.1 µM [18] | other results
CN1CCN(Cc2ccc(-c3cnc4[nH]cc(-c5ccc6[nH]ccc6c5)c4c3)cc2)CC1 [Compound 1, 3-(1H-Indol-5-yl)-5-(4-((4-methylpiperazin-1-yl)methyl)phenyl)-1H-pyrrolo[2,3-b]pyridine, reference compound] | 112% | 98.3% | 84.6% | 76.7% | 87.1% | 95.1% | 96.5% | 98.7% | 84.8% | 76.2% | 117% | 76.8% | 93% | 96.7% | 98.2% | 68.2% | 95% | 100% | 70% | 97.2% | remaining activity at 0.1 µM [19]: 95.4%; remaining activity at 0.1 µM [20]: 110%; remaining activity at 0.1 µM [21]: 72.6%; remaining activity at 0.1 µM [22]: 110%; remaining activity at 0.1 µM [23]: 97.3%; remaining activity at 0.1 µM [24]: 90.3%
OCCN1CCN(Cc2ccc(-c3cnc4[nH]cc(-c5cccc(Cl)c5)c4c3)cc2)CC1 [Compound 12k, 2-(4-(4-(3-(3-Chlorophenyl)-1H-pyrrolo[2,3-b]pyridin-5-yl)benzyl)piperazin-1-yl)ethan-1-ol] | 103% | 98% | 77.4% | 91.5% | 92.4% | 79.9% | 84.9% | 91.1% | 89.2% | 84.7% | 100% | 61.3% | 94.8% | 103% | 93.3% | 76.7% | 103% | 98.3% | 41.5% | 84.2% | remaining activity at 0.1 µM [19]: 95.4%; remaining activity at 0.1 µM [20]: 98.6%; remaining activity at 0.1 µM [21]: 88.6%; remaining activity at 0.1 µM [22]: 95.7%; remaining activity at 0.1 µM [23]: 90.8%; remaining activity at 0.1 µM [24]: 77.5%
